# Entries after “also recorded” stand apart in the source; their conditions may differ.
# Legend:
# [1] = system: postsynaptic dopaminergic receptor; assay: Antagonism of apomorphine-induced locomotor stimulation; assay type: in vivo, rat
# Experimental: 3. Evidence for postsynaptic dopminergic receptor antagonist activity of (-)-3-PPP.
# The locomotor stimulating action of the dopamine receptor aqonist apomorphine is antagonized by (-)-3-PPP. […] Thus the postsynaptic receptor antagonist activity requires a larger dose than the presynaptic receptor agonist activity, which is evident after doses down to 0.25 mg/kg.
# Further, (-)-3-PPP and racemic 3-PPP have been compared regarding antagonism of apomorphine-induced locomotor stimulation. Either form of 3-PPP was injected subcutaneously in a dose of 8 mg/kg 20 min and apomorphine in a dose of 1 mg/kg subcutaneously 5 min before placing the rats in the Motron for 30 min. Shown are the counts per 30 min., means± s.e.m. and number of experiments (n).
# [2] = system: postsynaptic dopaminergic receptors; assay: Locomotor activity in reserpine-treated rats, enantiomers of 3-PPP; assay type: in vivo, rat; settings: reserpine-treated rats; (+)-form 0.25 to 64 mg/kg
# From the text: 2. Evidence for postsynaptic dopaminergic receptor agonist activity of (+)-3-PPP.
# [3] = system: dopaminergic receptors (presynaptic and postsynaptic); assay: Dopaminergic receptor profile of 3-PPP and its enantiomers (summary of tests); assay type: in vivo; settings: summary of enantiomer tests
# From the text: The two enantiomers of 3-PPP have now been tested separately.
# dopa formation = assay: Dopa formation and dopamine metabolite levels in rats not pretreated with GBL or reserpine; assay type: in vivo, rat
# [4] = system: presynaptic dopaminergic receptors and postsynaptic dopaminergic receptors; assay: Antagonism of the locomotor stimulating activity of (+)-amphetamine; settings: in vivo
# From the text: This effect is probably the result of the simultaneous stimulation of presynaptic dopaminergic receptors and partial blockade of postsynaptic dopaminergic receptors. All the major antipsychotic agents in current use are potent amphetamine antagonists, and such activity is considered to be predictive of antipsychotic action.
# [5] = system: presynaptic dopaminergic receptor (autoreceptor); assay: Spontaneous exploratory motor activity of rats, enantiomers of 3-PPP; assay type: in vivo, rat
# Experimental: 1. Evidence for presynaptic dopaminergic receptor (autoreceptor) agonist activity of both enantiomers of 3-PPP. Both enantiomers of 3-PPP cause a dose-dependent decrease in spontaneous exploratory motor activity of rats. […] However, the (+)-enantiomer causes a decrease only after doses between 0.25 and 4 mg/kg s.c.
smiles,measurement,setting,value
"CCCN1CCCC(c2cccc(O)c2)C1.Cl (single isomer, unassigned; (-)) [(-)-3-PPP, (-)-3-(3-Hydroxyphenyl)-N-n-propylpiperidine hydrochloride]",antagonism of apomorphine locomotor stimulation,[1]; 2 mg/kg,not after 2 mg/kg
same,"counts per 30 min., with apomorphine","[1]; 8 mg/kg s.c. + apomorphine 1 mg/kg s.c., means ± s.e.m., n=5",276 ± 50 counts per 30 min.
same,antagonism of apomorphine locomotor stimulation,"[1]; 8 mg/kg s.c., hydrochloride",clearcut; also recorded: antagonized said stimulation
same,stimulation of locomotor activity,[2],only a very weak stimulation of motor activity
same,activity on presynaptic and postsynaptic dopaminergic receptors,[3],capable of activating the presynaptic dopaminergic receptors (autoreceptors) but concomitantly reduced the sensitivity of the postsynaptic dopaminergic receptors to dopaminergic agonists
same,"dopa formation, limbic region","dopa formation; 0.053 to 64 mg/kg, no pretreatment, limbic region",no change
same,"dopa formation, striatum","dopa formation; 0.053 to 64 mg/kg, no pretreatment, striatum",increase
same,"levels of 3,4-dihydroxyphenyl acetic acid and homovanillic acid",dopa formation; matched to the changes in dopa formation,corresponding changes in the levels of the dopamine metabolites
same,dopa formation and dopamine metabolite levels in rat striatum,dopa formation; rat striatum,stimulate dopa formation and to raise dopaminemetabolite levels in rat striatum
same,antagonism of (+)-amphetamine locomotor stimulating activity,[4],striking antagonistic action
same,effect on locomotor activity over dose range,[5]; doses between 0.053 and 64 mg/kg s.c.,"a decrease after all these doses, with no reversal of the effect after larger doses"
same,doses down to which presynaptic receptor agonist activity is evident,[5]; presynaptic receptor agonist activity,0.25 mg/kg
same,decrease of locomotor activity to % of control,"[5]; s.c., first 30 min",30-40 % of control

# Source: patent US4937346A, “Phenyl-azacykloalkanes” (Carlsson; Per Arvid Emil, priority 1979, dated 1990)
